Laboratory results reported in PubChem BioAssay (NCI).
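Assay format: 96-well plates, 48-hour exposure. The concentration for 50% growth inhibition is given as GI50. TGI: total growth inhibition.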

Key:
Assay in all cases: NCI anticancer screen, dose series, 48 h
[1] = system: OVCAR-4 ovarian
[2] = system: SN12C renal
[3] = system: NCI-H522 lung
[4] = system: MOLT-4 leukemia
[5] = system: SNB-19 CNS
[6] = system: PC-3 prostate
[7] = system: UO-31 renal
[8] = system: NCI/ADR-RES ovarian
[9] = system: U251 CNS
[10] = system: COLO 205 colon
[11] = system: A498 renal
[12] = system: K-562 leukemia
[13] = system: OVCAR-8 ovarian
[14] = system: SF-295 CNS
[15] = system: HCC-2998 colon
[16] = system: HS 578T breast
[17] = system: DU-145 prostate
[18] = system: SK-OV-3 ovarian
[19] = system: RXF 393 renal
[20] = system: LOX IMVI melanoma
[21] = system: HCT-116 colon
[22] = system: CCRF-CEM leukemia
[23] = system: SNB-75 CNS
[24] = system: SK-MEL-5 melanoma
[25] = system: CAKI-1 renal
[26] = system: TK-10 renal
[27] = system: UACC-62 melanoma
[28] = system: RPMI-8226 leukemia
[29] = system: OVCAR-3 ovarian
[30] = system: T-47D breast
[31] = system: HOP-92 NSCLC
[32] = system: M14 melanoma
[33] = system: NCI-H460 lung
[34] = system: 786-0 renal
[35] = system: ACHN renal
[36] = system: SF-539 CNS
[37] = system: IGROV1 ovarian
[38] = system: MDA-MB-231 breast
[39] = system: KM12 colon
[40] = system: MALME-3M melanoma
[41] = system: SK-MEL-2 melanoma
[42] = system: NCI-H226 lung
[43] = system: OVCAR-5 ovarian
[44] = system: SK-MEL-28 melanoma
[45] = system: SF-268 CNS
[46] = system: NCI-H23 lung
[47] = system: MCF7 breast
[48] = system: HT29 colon
[49] = system: UACC-257 melanoma
[50] = system: HCT-15 colon
[51] = system: BT-549 breast
[52] = system: HL-60(TB) leukemia
[53] = system: SW-620 colon
[54] = system: SR leukemia
[55] = system: HOP-62 NSCLC
[56] = system: MDA-MB-435
[57] = system: A549 NSCLC
[58] = system: EKVX NSCLC

Molecule `c1cc[n+](C2c3ccccc3C([n+]3ccccc3)c3ccccc32)cc1` (configuration not stated) has a GI50 [1] of 18.4 µM, a TGI [1] of over 100 µM and a GI50 [2] of 3390 nM. It also gave a TGI [2] of 25.4 µM, a GI50 [3] of 4670 nM and a TGI [3] of 30.7 µM. The GI50 [4] was 25.8 µM, the TGI [4] was over 100 µM and the GI50 [5] was 4130 nM. The TGI [5] was 42.8 µM, the GI50 [6] was 4800 nM and the TGI [6] was over 100 µM. The GI50 [7] was over 100000 nM, the TGI [7] was over 100 µM and the GI50 [8] was over 100000 nM. The TGI [8] was over 100 µM, the GI50 [9] was 3140 nM and the TGI [9] was over 90.8 µM. For the same molecule, the GI50 [10] was 4.24 µM, the TGI [10] was 22.2 µM and the GI50 [11] was 15.8 µM. For the same molecule, the TGI [11] was 73.7 µM, the GI50 [12] was 12 µM and the TGI [12] was over 100 µM. For the same molecule, the GI50 [13] was 6.23 µM, the TGI [13] was over 100 µM and the GI50 [14] was 4200 nM. It also gave a TGI [14] of 80.9 µM, a GI50 [15] of 10.3 µM and a TGI [15] of 31.8 µM. For the same molecule, the GI50 [16] was 4400 nM, the TGI [16] was 27 µM and the GI50 [17] was 14.2 µM. The TGI [17] was 43.8 µM, the GI50 [18] was 52.5 µM and the TGI [18] was over 100 µM. The GI50 [19] was 19.5 µM, the TGI [19] was 86.2 µM and the GI50 [20] was 15.8 µM. It also gave a TGI [20] of over 100 µM, a GI50 [21] of 10.7 µM and a TGI [21] of over 100 µM. The GI50 [22] was 10.7 µM, the TGI [22] was over 100 µM and the GI50 [23] was 1130 nM. For the same molecule, the TGI [23] was 3.15 µM, the GI50 [24] was 7.91 µM and the TGI [24] was 23.2 µM. The GI50 [25] was over 100000 nM, the TGI [25] was over 100 µM and the GI50 [26] was 19.2 µM. It also gave a TGI [26] of over 100 µM, a GI50 [27] of 11.3 µM and a TGI [27] of 28.7 µM. The GI50 [28] was 6.96 µM, the TGI [28] was over 86.4 µM and the GI50 [29] was 14.1 µM. It also gave a TGI [29] of over 77 µM, a GI50 [30] of 10.1 µM and a TGI [30] of 79.6 µM. For the same molecule, the GI50 [31] was 4450 nM, the TGI [31] was 50.9 µM and the GI50 [32] was 41 µM. The TGI [32] was over 100 µM, the GI50 [33] was 21.1 µM and the TGI [33] was over 89.4 µM. It also gave a GI50 [34] of 15.9 µM, a TGI [34] of over 100 µM and a GI50 [35] of over 100000 nM. It also gave a TGI [35] of over 100 µM, a GI50 [36] of 2590 nM and a TGI [36] of 17.3 µM. It also gave a GI50 [37] of 1960 nM, a TGI [37] of over 82.8 µM and a GI50 [38] of 21.6 µM. It also gave a TGI [38] of over 100 µM, a GI50 [39] of 6.43 µM and a TGI [39] of 50.1 µM. The GI50 [40] was 3900 nM, the TGI [40] was 18.6 µM and the GI50 [41] was 15 µM. The TGI [41] was over 66.4 µM, the GI50 [42] was 17.9 µM and the TGI [42] was over 100 µM. For the same molecule, the GI50 [43] was 26.7 µM, the TGI [43] was over 100 µM and the GI50 [44] was 5.92 µM. The TGI [44] was over 44.5 µM, the GI50 [45] was 2130 nM and the TGI [45] was 11.8 µM. The GI50 [46] was 5.11 µM, the TGI [46] was over 52.4 µM and the GI50 [47] was 11.9 µM. It also gave a TGI [47] of over 100 µM, a GI50 [48] of 12.6 µM and a TGI [48] of over 75.5 µM. The GI50 [49] was 5.93 µM, the TGI [49] was 37 µM and the GI50 [50] was over 100000 nM. For the same molecule, the TGI [50] was over 100 µM, the GI50 [51] was 3640 nM and the TGI [51] was 14.6 µM. For the same molecule, the GI50 [52] was 22.6 µM, the TGI [52] was over 100 µM and the GI50 [53] was 8.52 µM. It also gave a TGI [53] of over 100 µM, a GI50 [54] of 7.64 µM and a TGI [54] of over 100 µM. It also gave a GI50 [55] of 5.77 µM, a TGI [55] of 71.1 µM and a GI50 [56] of 5.89 µM. The TGI [56] was 23 µM, the GI50 [57] was 26.6 µM and the TGI [57] was over 100 µM. For the same molecule, the GI50 [58] was 3390 nM and the TGI [58] was over 100 µM.
Work on `O=C(Nc1ncc(Cc2ccccc2)s1)c1sc2ccccc2c1Cl` yielded a GI50 [1] of 3.32 µM, a TGI [1] of 79.4 µM and a GI50 [2] of 1240 nM. The TGI [2] was over 100 µM, the GI50 [3] was 739 nM and the TGI [3] was 15.8 µM. The GI50 [4] was 0.68 µM, the TGI [4] was over 100 µM and the GI50 [5] was 777 nM. It also gave a TGI [5] of 59.9 µM, a GI50 [6] of 948 nM and a TGI [6] of over 60.4 µM. It also gave a GI50 [7] of 1410 nM, a TGI [7] of over 82.3 µM and a GI50 [8] of 573 nM. It also gave a TGI [8] of 35.1 µM, a GI50 [9] of 593 nM and a TGI [9] of 26 µM. For the same molecule, the GI50 [10] was 2.16 µM, the TGI [10] was over 100 µM and the GI50 [11] was 0.286 µM. It also gave a TGI [11] of 5.59 µM, a GI50 [12] of 0.434 µM and a TGI [12] of over 100 µM. It also gave a GI50 [13] of 2.54 µM, a TGI [13] of over 100 µM and a GI50 [14] of 753 nM. The TGI [14] was 19.6 µM, the GI50 [15] was 0.552 µM and the TGI [15] was 12.3 µM. The GI50 [16] was 537 nM, the TGI [16] was 29.9 µM and the GI50 [17] was 2.8 µM. For the same molecule, the TGI [17] was 36.5 µM, the GI50 [18] was 2.77 µM and the TGI [18] was 93.7 µM. It also gave a GI50 [19] of 0.665 µM, a TGI [19] of 10.6 µM and a GI50 [20] of 1.07 µM. The TGI [20] was over 61.8 µM, the GI50 [21] was 0.469 µM and the TGI [21] was over 76.6 µM. The GI50 [22] was 0.593 µM, the TGI [22] was over 100 µM and the GI50 [23] was 368 nM. For the same molecule, the TGI [23] was 12.9 µM, the GI50 [24] was 0.0634 µM and the TGI [24] was 0.691 µM. The GI50 [25] was 574 nM, the TGI [25] was 24.5 µM and the GI50 [26] was 4.01 µM. For the same molecule, the TGI [26] was 69.1 µM, the GI50 [27] was 0.147 µM and the TGI [27] was 17.8 µM. The GI50 [28] was 1.33 µM, the TGI [28] was over 100 µM and the GI50 [29] was 0.523 µM. For the same molecule, the TGI [29] was 14.4 µM, the GI50 [30] was 0.0713 µM and the TGI [30] was over 100 µM. For the same molecule, the GI50 [31] was 1230 nM, the TGI [31] was 45.3 µM and the GI50 [32] was 0.448 µM. It also gave a TGI [32] of 32.2 µM, a GI50 [33] of 0.253 µM and a TGI [33] of 18.4 µM. The GI50 [34] was 1.32 µM, the TGI [34] was 40.1 µM and the GI50 [35] was 496 nM. For the same molecule, the TGI [35] was 48.6 µM, the GI50 [36] was 497 nM and the TGI [36] was 5.23 µM. It also gave a GI50 [37] of 903 nM, a TGI [37] of 61.5 µM and a GI50 [38] of 1.21 µM. The TGI [38] was 19.3 µM, the GI50 [39] was 0.0684 µM and the TGI [39] was 29 µM. The GI50 [40] was 809 nM, the TGI [40] was 24.3 µM and the GI50 [41] was 0.534 µM. It also gave a TGI [41] of over 64.4 µM, a GI50 [42] of 2.2 µM and a TGI [42] of over 46.6 µM. It also gave a GI50 [43] of 2.21 µM, a TGI [43] of 64.2 µM and a GI50 [44] of 2.18 µM. It also gave a TGI [44] of over 80.4 µM, a GI50 [45] of 1370 nM and a TGI [45] of over 100 µM. For the same molecule, the GI50 [46] was 2.25 µM, the TGI [46] was over 61.6 µM and the GI50 [47] was 0.037 µM. It also gave a TGI [47] of over 100 µM, a GI50 [48] of 0.449 µM and a TGI [48] of over 63.1 µM. It also gave a GI50 [49] of 1.93 µM, a TGI [49] of over 66.5 µM and a GI50 [50] of 44.9 nM. The TGI [50] was over 100 µM, the GI50 [51] was 2210 nM and the TGI [51] was 40 µM. It also gave a GI50 [52] of 0.375 µM, a TGI [52] of over 100 µM and a GI50 [53] of 0.476 µM. It also gave a TGI [53] of over 100 µM, a GI50 [54] of 0.522 µM and a TGI [54] of over 100 µM. The GI50 [55] was 1.23 µM, the TGI [55] was over 62.4 µM and the GI50 [56] was 0.25 µM. For the same molecule, the TGI [56] was 0.805 µM, the GI50 [57] was 0.853 µM and the TGI [57] was over 50.4 µM. For the same molecule, the GI50 [58] was 969 nM and the TGI [58] was over 100 µM.
